Measured values from patent US20090312352A1 (priority 2004, published 2009).

Key:
Experiment in all cases: biochemical
YopH [1] = target: T1, YopH (Yersinia pestis, UniProt O68720); assay type: biochemical
CD45 = CD45 (Homo sapiens, UniProt P08575)
TCPTP = TCPTP (Homo sapiens, UniProt P17706)
LAR = LAR (Homo sapiens, UniProt P10586)
VH1 = VH1 (Vaccinia virus, UniProt P07239)
VHR = VHR (Homo sapiens, UniProt P51452)
HePTP = HePTP (Homo sapiens, UniProt P35236)
YopH [2] = target: T1, YopH; assay type: binding
VHX = VHX (Homo sapiens, UniProt Q9NRW4)
LMPTP B = LMPTP B (Homo sapiens, UniProt P24666)
PTP 1B = PTP 1B (Homo sapiens, UniProt P18031)
YopH [3] = target: T1, YopH

T1 sequence (O68720 1-468): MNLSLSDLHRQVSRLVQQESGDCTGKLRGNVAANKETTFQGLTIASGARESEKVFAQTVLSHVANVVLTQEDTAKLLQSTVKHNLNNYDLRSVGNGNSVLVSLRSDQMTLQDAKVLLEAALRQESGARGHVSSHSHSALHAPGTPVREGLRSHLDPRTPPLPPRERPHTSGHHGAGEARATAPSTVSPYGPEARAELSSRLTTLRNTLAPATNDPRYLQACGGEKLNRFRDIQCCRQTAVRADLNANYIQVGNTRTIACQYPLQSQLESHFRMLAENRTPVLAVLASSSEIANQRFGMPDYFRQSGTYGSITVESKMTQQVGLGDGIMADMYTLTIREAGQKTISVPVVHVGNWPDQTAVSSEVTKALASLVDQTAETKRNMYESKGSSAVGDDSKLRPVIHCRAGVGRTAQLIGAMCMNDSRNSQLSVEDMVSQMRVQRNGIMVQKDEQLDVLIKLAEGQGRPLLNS
Chain of LAR (P10586 30-1907): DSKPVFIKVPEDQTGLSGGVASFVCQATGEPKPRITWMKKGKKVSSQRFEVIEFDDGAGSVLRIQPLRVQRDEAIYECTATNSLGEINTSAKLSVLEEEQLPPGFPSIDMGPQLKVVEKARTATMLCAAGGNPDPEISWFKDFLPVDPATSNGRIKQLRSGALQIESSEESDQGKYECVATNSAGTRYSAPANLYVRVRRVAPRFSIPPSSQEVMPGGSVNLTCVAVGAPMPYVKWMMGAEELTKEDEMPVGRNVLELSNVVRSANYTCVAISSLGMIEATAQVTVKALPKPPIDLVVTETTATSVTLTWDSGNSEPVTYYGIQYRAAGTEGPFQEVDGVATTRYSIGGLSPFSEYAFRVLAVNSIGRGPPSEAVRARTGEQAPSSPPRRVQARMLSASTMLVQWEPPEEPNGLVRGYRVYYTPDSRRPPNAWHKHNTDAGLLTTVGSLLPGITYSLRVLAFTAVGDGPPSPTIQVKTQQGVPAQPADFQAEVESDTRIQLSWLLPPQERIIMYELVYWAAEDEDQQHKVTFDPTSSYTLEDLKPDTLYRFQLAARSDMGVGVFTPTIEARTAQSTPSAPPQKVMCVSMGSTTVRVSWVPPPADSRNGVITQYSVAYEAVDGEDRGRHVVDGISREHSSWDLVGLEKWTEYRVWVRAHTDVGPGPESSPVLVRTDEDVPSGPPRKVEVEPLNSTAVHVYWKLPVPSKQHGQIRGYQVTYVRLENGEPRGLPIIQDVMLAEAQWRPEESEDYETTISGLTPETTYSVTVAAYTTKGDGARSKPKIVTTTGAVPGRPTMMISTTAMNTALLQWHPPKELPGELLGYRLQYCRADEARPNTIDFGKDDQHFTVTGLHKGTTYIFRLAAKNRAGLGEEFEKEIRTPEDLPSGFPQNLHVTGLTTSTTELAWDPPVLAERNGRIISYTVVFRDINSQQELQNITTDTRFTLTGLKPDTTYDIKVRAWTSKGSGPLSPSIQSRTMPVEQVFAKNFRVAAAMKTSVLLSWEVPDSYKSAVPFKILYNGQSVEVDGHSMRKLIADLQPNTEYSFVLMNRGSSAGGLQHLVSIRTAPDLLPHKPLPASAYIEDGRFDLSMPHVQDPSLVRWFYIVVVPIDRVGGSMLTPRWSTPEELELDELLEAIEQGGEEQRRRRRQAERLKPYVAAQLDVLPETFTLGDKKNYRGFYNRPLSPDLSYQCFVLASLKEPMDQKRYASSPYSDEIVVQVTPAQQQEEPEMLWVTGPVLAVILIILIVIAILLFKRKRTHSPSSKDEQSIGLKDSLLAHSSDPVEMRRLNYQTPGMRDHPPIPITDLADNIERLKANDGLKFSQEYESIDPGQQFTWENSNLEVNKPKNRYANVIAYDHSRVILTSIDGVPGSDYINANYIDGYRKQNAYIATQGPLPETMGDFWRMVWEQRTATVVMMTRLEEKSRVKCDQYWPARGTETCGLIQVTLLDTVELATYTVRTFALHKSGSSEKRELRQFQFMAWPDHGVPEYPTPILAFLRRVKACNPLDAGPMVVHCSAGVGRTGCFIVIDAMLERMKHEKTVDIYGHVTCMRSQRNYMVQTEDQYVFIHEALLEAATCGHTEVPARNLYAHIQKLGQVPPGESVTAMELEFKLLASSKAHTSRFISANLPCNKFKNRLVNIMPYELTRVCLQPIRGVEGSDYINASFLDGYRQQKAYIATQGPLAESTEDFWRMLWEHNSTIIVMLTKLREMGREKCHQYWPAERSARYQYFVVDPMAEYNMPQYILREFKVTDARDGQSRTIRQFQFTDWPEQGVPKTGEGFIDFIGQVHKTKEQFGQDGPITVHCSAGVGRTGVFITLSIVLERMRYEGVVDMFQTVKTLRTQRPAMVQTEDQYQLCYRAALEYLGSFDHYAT
Chain of VHX (Q9NRW4 whole entry): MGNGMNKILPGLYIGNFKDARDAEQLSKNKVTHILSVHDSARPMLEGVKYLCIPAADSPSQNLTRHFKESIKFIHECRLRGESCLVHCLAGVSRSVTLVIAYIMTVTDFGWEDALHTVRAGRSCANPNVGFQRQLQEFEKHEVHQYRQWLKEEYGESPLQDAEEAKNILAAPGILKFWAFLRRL
Chain of HePTP (P35236 whole entry): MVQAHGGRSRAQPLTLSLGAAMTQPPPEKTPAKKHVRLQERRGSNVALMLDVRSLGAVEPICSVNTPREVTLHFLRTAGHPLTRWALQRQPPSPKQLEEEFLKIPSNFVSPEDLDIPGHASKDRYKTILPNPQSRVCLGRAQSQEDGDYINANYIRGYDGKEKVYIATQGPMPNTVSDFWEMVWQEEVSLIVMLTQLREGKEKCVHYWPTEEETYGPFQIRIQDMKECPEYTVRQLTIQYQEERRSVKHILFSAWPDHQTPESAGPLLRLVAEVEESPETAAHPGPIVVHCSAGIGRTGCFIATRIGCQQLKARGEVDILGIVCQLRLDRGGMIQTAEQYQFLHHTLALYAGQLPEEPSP
Chain of LMPTP B (P24666 whole entry, looked up): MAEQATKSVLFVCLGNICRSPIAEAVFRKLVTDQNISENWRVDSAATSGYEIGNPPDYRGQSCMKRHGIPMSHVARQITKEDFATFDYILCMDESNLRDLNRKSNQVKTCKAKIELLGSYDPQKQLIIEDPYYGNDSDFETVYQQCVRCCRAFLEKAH
Chain of TCPTP (P17706 whole entry): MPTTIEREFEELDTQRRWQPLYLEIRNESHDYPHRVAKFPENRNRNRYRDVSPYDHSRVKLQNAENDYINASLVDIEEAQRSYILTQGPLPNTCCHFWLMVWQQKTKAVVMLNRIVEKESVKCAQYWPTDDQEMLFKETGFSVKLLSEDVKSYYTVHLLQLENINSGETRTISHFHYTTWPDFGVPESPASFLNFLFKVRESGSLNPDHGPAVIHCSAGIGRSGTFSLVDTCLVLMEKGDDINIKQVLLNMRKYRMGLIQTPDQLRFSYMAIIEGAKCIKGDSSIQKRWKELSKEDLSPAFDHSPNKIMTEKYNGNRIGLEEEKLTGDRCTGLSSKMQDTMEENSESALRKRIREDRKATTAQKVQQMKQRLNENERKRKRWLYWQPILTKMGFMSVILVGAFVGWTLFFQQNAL
Chain of CD45 (P08575 26-1306): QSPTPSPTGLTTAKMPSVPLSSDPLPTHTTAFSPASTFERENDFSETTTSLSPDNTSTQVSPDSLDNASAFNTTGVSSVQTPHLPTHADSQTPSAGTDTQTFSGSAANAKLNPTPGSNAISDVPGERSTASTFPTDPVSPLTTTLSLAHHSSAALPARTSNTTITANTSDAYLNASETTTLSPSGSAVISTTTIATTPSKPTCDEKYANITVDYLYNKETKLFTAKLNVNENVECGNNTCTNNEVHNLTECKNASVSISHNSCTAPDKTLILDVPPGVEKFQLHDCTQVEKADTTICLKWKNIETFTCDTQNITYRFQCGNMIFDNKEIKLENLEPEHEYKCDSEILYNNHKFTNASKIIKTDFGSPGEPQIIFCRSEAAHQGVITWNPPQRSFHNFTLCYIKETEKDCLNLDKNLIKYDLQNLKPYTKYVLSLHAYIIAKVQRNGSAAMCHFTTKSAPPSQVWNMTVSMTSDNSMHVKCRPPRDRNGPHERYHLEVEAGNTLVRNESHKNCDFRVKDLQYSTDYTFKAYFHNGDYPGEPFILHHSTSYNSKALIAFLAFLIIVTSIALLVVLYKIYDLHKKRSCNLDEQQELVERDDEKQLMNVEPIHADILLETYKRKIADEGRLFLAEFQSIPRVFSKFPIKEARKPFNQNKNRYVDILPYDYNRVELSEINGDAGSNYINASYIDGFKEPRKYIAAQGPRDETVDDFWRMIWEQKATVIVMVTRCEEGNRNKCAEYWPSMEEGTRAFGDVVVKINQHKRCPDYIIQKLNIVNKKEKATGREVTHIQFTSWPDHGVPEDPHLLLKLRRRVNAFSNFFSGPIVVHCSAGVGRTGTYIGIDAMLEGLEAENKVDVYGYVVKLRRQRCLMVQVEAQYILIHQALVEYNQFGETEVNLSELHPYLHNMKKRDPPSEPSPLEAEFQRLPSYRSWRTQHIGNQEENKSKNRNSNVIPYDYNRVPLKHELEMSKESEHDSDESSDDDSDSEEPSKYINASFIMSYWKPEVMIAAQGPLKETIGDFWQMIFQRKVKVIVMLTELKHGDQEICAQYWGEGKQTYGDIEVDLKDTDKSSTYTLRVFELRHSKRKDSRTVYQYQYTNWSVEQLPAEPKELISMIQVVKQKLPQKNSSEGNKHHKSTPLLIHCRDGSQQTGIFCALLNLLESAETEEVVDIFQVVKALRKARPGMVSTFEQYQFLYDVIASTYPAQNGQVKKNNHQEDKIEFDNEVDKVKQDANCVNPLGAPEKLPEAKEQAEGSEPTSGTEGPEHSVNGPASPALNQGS
Chain of VHR (P51452 whole entry): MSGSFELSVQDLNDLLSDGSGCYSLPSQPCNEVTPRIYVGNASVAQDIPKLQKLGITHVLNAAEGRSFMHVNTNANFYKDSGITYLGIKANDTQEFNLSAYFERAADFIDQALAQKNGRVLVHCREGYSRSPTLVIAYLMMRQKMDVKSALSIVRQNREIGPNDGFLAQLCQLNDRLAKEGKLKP

O=C1C=CC(=O)C(c2ccc(C(=O)O)cc2)=C1 [4-(3,6-dioxocyclohexa-1,4-dienyl)benzoic acid]
time-dependence of inhibition (YopH [1]): clearly showed a time-dependent inhibition

O=C1NC(=O)/C(=C\c2ccc(-c3cccc([N+](=O)[O-])c3)o2)S1 [Compound 5376305]
Ki (YopH [1]; Ki(u)): 50 µM

N=C1NC(=O)/C(=C\c2ccc(-c3cccc(C(=O)O)c3)o2)S1 [Compound 5377688]
Ki (YopH [1]; Ki(c)): 19.2 µM

O=C1NC(=O)/C(=C\c2ccco2)S1 [Compound 5377816]
YopH inhibition (in words) (YopH [1]): complete loss of YopH inhibition

O=C1NC(=O)C(=Cc2ccc(-c3ccc(O)c(C(=O)O)c3)o2)C(=O)N1 [Compound 5377894]
fold higher Ki value (YopH [1]): 12.5 fold | Ki (YopH [1]; Ki): 4.1 µM | Ki (YopH [1]; Ki(c)): 4.13 µM

O=C(O)c1cc(-c2ccc(C=C3C(=O)c4ccccc4C3=O)o2)ccc1O [Compound 5378650]
Ki (YopH [1]; Ki(c)): 3.2 µM

O=C(O)c1cc(-c2ccc(/C=N/n3cnnc3)o2)ccc1O [Compound 5381181]
Ki (YopH [1]; Ki(c)): 3.73 µM

O=C1NC(=S)NC(=O)C1=Cc1ccc(-c2ccc(C(=O)O)c(O)c2)o1 [Compound 5557271, 4-(5-((tetrahydro-4,6-dioxo-2-thioxopyrimidin-5(6H)-ylidene)methyl)furan-2-yl)-salicylic acid]
IC50 (CD45): 1.7 µM | IC50 (TCPTP): 11 µM | IC50 (LAR): 10.9 µM | IC50 (VH1): > 250 µM | IC50 (VHR): 34.7 µM | IC50 (HePTP): 32.4 µM | Kd (YopH [2]): 0.33 µM | fold lower inhibitory constant than salicylic acid alone (YopH [1]): 2667 fold | Ki (YopH [1]; Ki): 0.33 µM | Ki (YopH [1]; Ki(c)): 0.33 µM | IC50 (VHX): > 250 µM | IC50 (LMPTP B): > 250 µM | IC50 (PTP 1B): 9.7 µM | IC50 (YopH [3]): 1.4 µM

O=C1NC(=S)S/C1=C/c1ccc(-c2ccc(C(=O)O)cc2)o1 [Compound 5660015]
Ki (YopH [1]; Ki(c)): 19.7 µM

CCN1C(=O)/C(=C\c2ccc(-c3ccc(O)cc3)o2)SC1=S [Compound 5667408]
Ki (YopH [1]; Ki(c)): 38.6 µM | Ki (YopH [1]; Ki(u)): 55.7 µM

Cc1cc2nc3s/c(=C\c4ccc(-c5ccc(O)c(C(=O)O)c5)o4)c(=O)n3c2cc1C [Compound 5670901]
IC50 (CD45): 2.5 µM | IC50 (TCPTP): 11 µM | IC50 (LAR): 7.7 µM | IC50 (VH1): > 250 µM | IC50 (VHR): 21.2 µM | IC50 (HePTP): 32.6 µM | Kd (YopH [2]): 0.54 µM | Ki (YopH [1]; Ki): 0.92 µM | Ki (YopH [1]; Ki(c)): 0.922 µM | Ki (YopH [1]; Ki(u)): 8.3 µM | IC50 (VHX): > 250 µM | IC50 (LMPTP B): > 250 µM | IC50 (PTP 1B): 7 µM | IC50 (YopH [3]): 2 µM

Cc1cc(C)c2nc3s/c(=C\c4ccc(-c5ccc(O)c(C(=O)O)c5)o4)c(=O)n3c2c1 [Compound 5675844]
Ki (YopH [1]; Ki): 8.8 µM | Ki (YopH [1]; Ki(c)): 8.82 µM | Ki (YopH [1]; Ki(u)): 10.9 µM

O=C(Cn1nnc(-c2ccccc2)n1)N/N=C/c1ccc(-c2ccc(O)c(C(=O)O)c2)o1 [Compound 5680029]
IC50 (CD45): 15.1 µM | IC50 (TCPTP): 22.7 µM | IC50 (LAR): 35.8 µM | IC50 (VH1): > 250 µM | IC50 (VHR): 31.6 µM | IC50 (HePTP): 47.9 µM | Kd (YopH [2]): 1.04 µM | Ki (YopH [1]; Ki(c)): 2.8 µM | Ki (YopH [1]; Ki(u)): 8.9 µM | IC50 (VHX): 34.9 µM | IC50 (LMPTP B): > 250 µM | IC50 (PTP 1B): 14.3 µM | IC50 (YopH [3]): 5.1 µM

O=C(O)c1cccc(-c2ccc(/C=C3\SC(=S)N(Cc4ccccc4)C3=O)o2)c1 [Compound 5680282]
Ki (YopH [1]; Ki(c)): 17.7 µM | Ki (YopH [1]; Ki(u)): 42.8 µM

O=C1NC(=S)S/C1=C\c1ccc(-c2cc([N+](=O)[O-])ccc2O)o1 [Compound 5740279]
Ki (YopH [1]; Ki(c)): 17.1 µM | Ki (YopH [1]; Ki(u)): 16.5 µM

COc1ccc(C2=CC(=O)C=CC2=O)cc1 [Compound 5760449]
Ki (YopH [1]; Ki(c)): 6.52 ± 1.19 µM | Ki (YopH [1]; Ki(u)): 8.02 ± 0.589 µM

O=C1NC(=O)/C(=C/c2ccc(-c3ccc(O)c(C(=O)O)c3)o2)S1 [Compound 5842540]
IC50 (CD45): 5.7 µM | IC50 (TCPTP): 30.2 µM | IC50 (LAR): 12.2 µM | IC50 (VH1): > 250 µM | IC50 (VHR): 27.5 µM | IC50 (HePTP): 34.5 µM | Kd (YopH [2]): 1.34 µM | Ki (YopH [1]; Ki(c)): 1.13 ± 0.198 µM | Ki (YopH [1]; Ki(u)): 14.1 ± 4.21 µM | IC50 (VHX): 38.5 µM | IC50 (LMPTP B): 215 µM | IC50 (PTP 1B): 12 µM | IC50 (YopH [3]): 3.9 µM

CSCCC(C(=O)O)N1C(=O)/C(=C\c2ccc(-c3ccc([N+](=O)[O-])cc3)o2)SC1=S (centres unmarked) [Compound 5850330]
IC50 (CD45): 38.7 µM | IC50 (TCPTP): 197 µM | IC50 (LAR): 20.8 µM | IC50 (VH1): > 250 µM | IC50 (VHR): 49 µM | IC50 (HePTP): 95.9 µM | Ki (YopH [1]; Ki(c)): 9.78 ± 3.32 µM | IC50 (VHX): 106 µM | IC50 (LMPTP B): > 300 µM | IC50 (PTP 1B): 38.8 µM | IC50 (YopH [3]): 11.5 µM

c1ccc(Nc2nc(-c3ccccc3)[n+](-c3ccccc3)s2)cc1 [Compound 5858065]
Ki (YopH [1]; Ki(c)): 1.87 ± 0.924 µM | Ki (YopH [1]; Ki(u)): 2.57 ± 0.563 µM

Cc1ccc(-c2ccc(/C=C3\SC(=S)NC3=O)o2)c([N+](=O)[O-])c1 [Compound 6145062]
Ki (YopH [1]; Ki(u)): 94.1 µM

Cc1cc(C(=O)O)ccc1-c1ccc(/C=C2\SC(=S)NC2=O)o1 [Compound 6338530]
Ki (YopH [1]; Ki(c)): 11.4 µM | Ki (YopH [1]; Ki(u)): 84.2 µM

O=C1NC(=S)S/C1=C\c1ccc(-c2cc(C(=O)O)ccc2Cl)o1 [Compound 6431206]
Ki (YopH [1]; Ki(c)): 16.2 µM

COc1ccc(-c2ccc(/C=C3\SC(=S)NC3=O)o2)cc1[N+](=O)[O-] [Compound 6701338]
Ki (YopH [1]; Ki(c)): 6.53 µM | Ki (YopH [1]; Ki(u)): 9.8 µM

O=Cc1ccc(-c2ccc(C(=O)O)c(O)c2)o1 [Compound 8164075]
YopH inhibition (in words) (YopH [1]): still capable of inhibiting YopH in the low micromolar range | Ki (YopH [1]; Ki(c)): 7.89 µM | Ki (YopH [1]; Ki(u)): 61.2 µM

O=C(O)c1ccccc1O [salicylic acid, reference compound]
Ki (YopH [1]; Ki): 882 µM
